The results in this text go back to US20030082787A1, “Plant histidine biosynthetic enzymes” (priority 2001, published 2003).

The assay deals with HisA enzyme from Nicotiana Plumbaginifolia. Put plainly: HisA enzyme activity assay (INT/PMS dye, absorbance at 530 nm). Type of assay: biochemical. Particulars: partially purified recombinant enzyme expressed in E. coli BL21 (DE3); 0.2 M Triethanolamine pH 8.5, 30° C.; read-out: Km for substrate. As for the experimental part: The HisA enzyme from Nicotiana Plumbaginifolia was partially purified and assayed as follows. A plasmid clone with the cDNA insert in the correct orientation relative to the T7 promoter was transformed into E. coli strain BL21 (DE3) (Studier et al. (1986) J. Mol. Biol. 189:113-130). Cultures are grown in LB medium carbenicillin ([…]) at 28° C. to an optical denisity of 0.44 at 600 nm. Each liter of LB/carbenicillin was inoculated with 20 mL of the overnight culture. These one liter cultures were incubated at 26° C. with agitation for 21 hours. HisA expression was induced as described above. The cells were harvested by centrifugation and frozen at −80° C.
Each gram of cell paste was resuspended in two milliliters of 20 mM Triethanolamine buffer at pH 8.3 containing Complete™ protease inhibitors (Boehringer Mannheim) and 1 mM EDTA. The cells were disrupted by three passes through a microfluidizer and the lysed cell debris was removed by centrifugation. The supernatant was treated with streptomycin sulfate which was added to a final concentration of 1%. […]
HisA enzyme activity was assayed essentially as described by Margolies et al., (1966) J. Biol. Chem. 241:3262-3269. […] Blank reactions containing either no enzyme or no substrate were also prepared to control for background absorbance. […] The absorbance at 530 nm was measured.

The Km is the concentration of substrate that gives half-maximal velocity. In the case of `NC(=O)c1ncn([C@@H]2O[C@H](COP(=O)(O)O)[C@@H](O)[C@H]2O)c1N=CN[C@@H]1O[C@H](COP(=O)(O)O)[C@@H](O)[C@H]1O` [5′ Profar, N1-[(5′-phospho-b-D-ribosyl)formimino]-5-aminoimidazole-4-carboxamide ribonucleotide], the Km is 200 µM.
